Experimental findings from PubChem BioAssay (NCI) are described below.

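Values below derive from 48-hour exposures of cells grown in 96-well plates, with endpoints linearly interpolated between the two concentrations bracketing the appropriate inhibition level. GI50 marks 50% less growth. TGI: concentration producing complete growth inhibition.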 Where only a bound is given, the exact number is not on record here.

One experiment has as its system SF-295 CNS. The experiment is described as follows: DTP human tumour cell line panel, 48 h.
Consider `CCOC(=O)C1=C(NC)OCC1=O`, for which the TGI was over 100 µM.

The molecule `CCOC(=O)C1(C)CCC(C(C(=O)O)C(=O)O)CC1=O` (centres undefined) returned a TGI of over 100 µM.

For the molecule `CCc1ccc(Nc2cc(C)c3ccc(O)cc3n2)cc1`, the GI50 was 5.06 µM and the total growth inhibition concentration (TGI) amounted to 20.3 µM.

As for `COc1ccc(Nc2cnc3cc(N)cc(N)c3n2)cc1`, the GI50 was 22.3 µM and the TGI is 48.7 µM.

For the molecule `COc1cc(/C=C/c2cc(/C=C/c3ccc(O)c(OC)c3)n(C(=O)c3ccccc3Br)n2)ccc1O`, the GI50 is 3.12 µM and the TGI was determined as 35.1 µM.

Molecule `O=C1NC(=O)C2C(=O)NC(=O)C1C2Cc1ccco1` (centres undefined) returned a TGI of over 100 µM.

As to `S=C1SCN(Cc2ccccc2)CN1Cc1ccco1`, the GI50 is over 100 µM and the TGI is over 100 µM.

Turning to `CSc1nc2nc(-c3ccccc3)c(C)c-2c2n1C(C)C(=O)N2` (centres undefined), the GI50 was 24 µM and the TGI was over 100 µM.

`CC(=O)Nc1ccc(C2CC(c3ccc([N+](=O)[O-])cc3)=Nc3ccccc3S2=O)cc1` (centres undefined): the TGI stood at 93.2 µM. In other words, the double-digit micromolar range.

As for `COc1ccccc1Oc1nccc(-c2c(-c3ccc(F)cc3)ncn2C2CCNCC2)n1`, the GI50 is 17.5 µM and the TGI is over 25 µM.

Molecule `COc1cc(/C=C2\NC(=O)C(Cc3cc(OC)c(OC)c(C)c3OC)N(C(C)=O)C2=O)c(OC)c(C)c1OC` (centres undefined) displayed a TGI of over 100 µM.

As for `COc1cc(C(=O)/C=C/c2cccc(Nc3ccnc4cc(Cl)ccc34)c2)cc(OC)c1OC`, the GI50 was 1.42 µM and the TGI turned out to be 3.03 µM.

For `O=C1N[C@@H]2CCCC[C@@H]2C12CCCCC2`, the TGI was over 100 µM.

In turn, `O=C(NCCc1ccccc1)C1C(=O)C(=O)N(CCc2ccccc2)C1=O` (centres undefined) displayed a TGI of over 100 µM.

`CCOC(=O)C1S(=O)(=O)OCCOS1(=O)=O` returned a concentration for total growth inhibition (TGI) of over 100 µM.

Consider `O=[N+]([O-])c1ccc(-c2ccc(C3=Nn4c(CNc5ccccc5Cl)nnc4SC3)o2)cc1`, for which the TGI was over 100 µM.

Regarding `CCCC(=O)CC(C)C(=O)C(=O)NC12CC3CC(CC(C3)C1)C2` (centres undefined), the TGI is over 100 µM.

`CC(=O)OCC(=O)[C@@]1(O)CC[C@H]2[C@@H]3C[C@H](C)C4=CC(=O)C=C[C@]4(C)[C@@]3(F)[C@@H](O)C[C@@]21C` gave a TGI of over 100 µM.

`Nc1nc(=S)c2c(ncn2CCO)[nH]1` returned a TGI of over 100 µM.

`CCCCCC/C=C\CCCCCCCCC(=O)c1cccc(OC)c1OC` came in with a TGI of over 100 µM.

The test system of another experiment is HL-60(TB) leukemia. The experiment is described as follows: DTP human tumour cell line panel, 48 h.
In turn, `CCOC(=O)C1=C(NC)OCC1=O` had a TGI of over 100 µM.

Consider `CCOC(=O)C1(C)CCC(C(C(=O)O)C(=O)O)CC1=O` (centres undefined), for which the TGI was over 100 µM.

Consider `CCc1ccc(Nc2cc(C)c3ccc(O)cc3n2)cc1`, for which the GI50 is 3.32 µM and the TGI was 12.5 µM.

Take `COc1ccc(Nc2cnc3cc(N)cc(N)c3n2)cc1`: the GI50 is 5.49 µM and the TGI turned out to be 73.7 µM.

Regarding `COc1cc(/C=C/c2cc(/C=C/c3ccc(O)c(OC)c3)n(C(=O)c3ccccc3Br)n2)ccc1O`, the GI50 is 2.07 µM and the TGI came to 6 µM.

`O=C1NC(=O)C2C(=O)NC(=O)C1C2Cc1ccco1` (centres undefined): the TGI was over 100 µM.

In the case of `S=C1SCN(Cc2ccccc2)CN1Cc1ccco1`, the GI50 is 5.91 µM and the total growth inhibition concentration (TGI) was over 100 µM.

`COc1ccccc1CNCCN1C(=O)c2ccc3c4c(ccc(c24)C1=O)C(=O)N(CCNCc1ccccc1OC)C3=O`: the GI50 was 0.265 µM and the TGI is 0.607 µM.

Regarding `CSc1nc2nc(-c3ccccc3)c(C)c-2c2n1C(C)C(=O)N2` (centres undefined), the GI50 is 36.4 µM and the TGI is over 100 µM.

In turn, `CC(=O)Nc1ccc(C2CC(c3ccc([N+](=O)[O-])cc3)=Nc3ccccc3S2=O)cc1` (centres undefined) gave a TGI of 42.2 µM. This lies in the double-digit micromolar range.

`COc1ccccc1Oc1nccc(-c2c(-c3ccc(F)cc3)ncn2C2CCNCC2)n1`: the GI50 is over 23.3 µM and the TGI was over 25 µM.

Molecule `COc1cc(/C=C2\NC(=O)C(Cc3cc(OC)c(OC)c(C)c3OC)N(C(C)=O)C2=O)c(OC)c(C)c1OC` (centres undefined) came in with a concentration for total growth inhibition (TGI) of 69.9 µM. That is a double-digit micromolar value.

As to `COc1cc(C(=O)/C=C/c2cccc(Nc3ccnc4cc(Cl)ccc34)c2)cc(OC)c1OC`, the GI50 is 1.82 µM and the TGI is 4.52 µM.

The molecule `O=C1N[C@@H]2CCCC[C@@H]2C12CCCCC2` came in with a TGI of over 100 µM.

Turning to `C#Cc1ccc(-n2c(/C=C/c3ccc(O)cc3)nc3ncccc3c2=O)cc1`, the GI50 was 3.2 µM and the TGI was found to be 30 µM.

On to `O=C(NCCc1ccccc1)C1C(=O)C(=O)N(CCc2ccccc2)C1=O` (centres undefined), for which the TGI is over 100 µM.

On to `CCOC(=O)C1S(=O)(=O)OCCOS1(=O)=O`, for which the TGI is over 100 µM.

Consider `O=[N+]([O-])c1ccc(-c2ccc(C3=Nn4c(CNc5ccccc5Cl)nnc4SC3)o2)cc1`, for which the TGI was over 100 µM.

In turn, `CCCC(=O)CC(C)C(=O)C(=O)NC12CC3CC(CC(C3)C1)C2` (centres undefined) displayed a TGI of over 100 µM.

Turning to `CC(=O)OCC(=O)[C@@]1(O)CC[C@H]2[C@@H]3C[C@H](C)C4=CC(=O)C=C[C@]4(C)[C@@]3(F)[C@@H](O)C[C@@]21C`, the TGI is over 100 µM.

`Nc1nc(=S)c2c(ncn2CCO)[nH]1`: the TGI is over 100 µM.

In turn, `CCCCCC/C=C\CCCCCCCCC(=O)c1cccc(OC)c1OC` came in with a TGI of 69.9 µM.

In a further experiment the test system is A549 NSCLC. The experiment is described as follows: DTP human tumour cell line panel, 48 h.
Regarding `CCOC(=O)C1=C(NC)OCC1=O`, the TGI is over 100 µM.

`CCOC(=O)C1(C)CCC(C(C(=O)O)C(=O)O)CC1=O` (centres undefined) came in with a total growth inhibition concentration (TGI) of over 100 µM.

Consider `COc1ccc(Nc2cnc3cc(N)cc(N)c3n2)cc1`, for which the GI50 is 26.8 µM and the TGI is over 100 µM.

As to `COc1cc(/C=C/c2cc(/C=C/c3ccc(O)c(OC)c3)n(C(=O)c3ccccc3Br)n2)ccc1O`, the GI50 is 3.05 µM and the TGI came out at 45.3 µM.

`O=C1NC(=O)C2C(=O)NC(=O)C1C2Cc1ccco1` (centres undefined) yielded a TGI of over 100 µM.

Consider `S=C1SCN(Cc2ccccc2)CN1Cc1ccco1`, for which the GI50 was 23.3 µM and the TGI is over 100 µM.

For `COc1ccccc1CNCCN1C(=O)c2ccc3c4c(ccc(c24)C1=O)C(=O)N(CCNCc1ccccc1OC)C3=O`, the GI50 is 0.204 µM and the total growth inhibition concentration (TGI) worked out at 0.47 µM.

By TGI is commonly meant the concentration giving total growth inhibition. Low readings indicate greater sensitivity of the cells, high ones lower sensitivity of the cells. By GI50 is commonly meant the concentration that inhibits growth by half.
